Article PMC9569420 (Communications Biology, 2022)
Values joined by “and” are separate entries in the source; they are usually repeats but may differ in a detail not shown here. Equal entries are not always repeated.

Key:
IRR/INSRR = molecular target: T1, IRR/INSRR (Homo sapiens, UniProt P14616); assay: HotSpot kinase assay; assay type: biochemical; conditions: read-out: % Enzyme Activity (relative to DMSO controls)
T1 construct: purchased Reaction Biology Corporation

TEC = molecular target: T2, TEC (Homo sapiens, UniProt P42680); assay: HotSpot kinase assay; assay type: biochemical; conditions: read-out: % Enzyme Activity (relative to DMSO controls)
T2 construct: purchased Reaction Biology Corporation

PLK2 = molecular target: T3, PLK2 (Homo sapiens, UniProt Q9NYY3); assay: HotSpot kinase assay; assay type: biochemical; conditions: read-out: % Enzyme Activity (relative to DMSO controls)
T3 construct: purchased Reaction Biology Corporation

RSK4 = molecular target: T4, RSK4 (Homo sapiens, UniProt Q9UK32); assay: HotSpot kinase assay; assay type: biochemical; conditions: read-out: % Enzyme Activity (relative to DMSO controls)
T4 construct: purchased Reaction Biology Corporation

JAK2 = molecular target: T5, JAK2 (Homo sapiens, UniProt O60674); assay: HotSpot kinase assay; assay type: biochemical; conditions: read-out: % Enzyme Activity (relative to DMSO controls)
T5 construct: purchased Reaction Biology Corporation

VSV-S = assay type: cell-based, VSV pseudotyped with SARS-CoV-2 spike
CAMKK2 = molecular target: T6, CAMKK2 (Homo sapiens, UniProt Q96RR4); assay: HotSpot kinase assay; assay type: biochemical; conditions: read-out: % Enzyme Activity (relative to DMSO controls)
T6 construct: purchased Reaction Biology Corporation

CLK4 = molecular target: T7, CLK4 (Homo sapiens, UniProt Q9HAZ1); assay: HotSpot kinase assay; assay type: biochemical; conditions: read-out: % Enzyme Activity (relative to DMSO controls)
T7 construct: purchased Reaction Biology Corporation

NEK9 = molecular target: T8, NEK9 (Homo sapiens, UniProt Q8TD19); assay: HotSpot kinase assay; assay type: biochemical; conditions: read-out: % Enzyme Activity (relative to DMSO controls)
T8 construct: purchased Reaction Biology Corporation

PKCg = molecular target: T9, PKCg (Homo sapiens, UniProt P05129); assay: HotSpot kinase assay; assay type: biochemical; conditions: read-out: % Enzyme Activity (relative to DMSO controls)
T9 construct: purchased Reaction Biology Corporation

STK32C/YANK3 = molecular target: T10, STK32C/YANK3 (Homo sapiens, UniProt Q86UX6); assay: HotSpot kinase assay; assay type: biochemical; conditions: read-out: % Enzyme Activity (relative to DMSO controls)
T10 construct: purchased Reaction Biology Corporation

CAMK4 = molecular target: T11, CAMK4 (Homo sapiens, UniProt Q16566); assay: HotSpot kinase assay; assay type: biochemical; conditions: read-out: % Enzyme Activity (relative to DMSO controls)
T11 construct: purchased Reaction Biology Corporation

MARK3 = molecular target: T12, MARK3 (Homo sapiens, UniProt P27448); assay: HotSpot kinase assay; assay type: biochemical; conditions: read-out: % Enzyme Activity (relative to DMSO controls)
T12 construct: purchased Reaction Biology Corporation

BMPR2 = molecular target: T13, BMPR2 (Homo sapiens, UniProt Q13873); assay: HotSpot kinase assay; assay type: biochemical; conditions: read-out: % Enzyme Activity (relative to DMSO controls)
T13 construct: purchased Reaction Biology Corporation

LRRK2 = molecular target: T14, LRRK2 (Homo sapiens, UniProt Q5S007); assay: HotSpot kinase assay; assay type: biochemical; conditions: read-out: % Enzyme Activity (relative to DMSO controls)
T14 construct: purchased Reaction Biology Corporation

LCK2/ICK = molecular target: T15, LCK2/ICK (Homo sapiens, UniProt Q9UPZ9); assay: HotSpot kinase assay; assay type: biochemical; conditions: read-out: % Enzyme Activity (relative to DMSO controls)
T15 construct: purchased Reaction Biology Corporation

PHKg2 = molecular target: T16, PHKg2 (Homo sapiens, UniProt P15735); assay: HotSpot kinase assay; assay type: biochemical; conditions: read-out: % Enzyme Activity (relative to DMSO controls)
T16 construct: purchased Reaction Biology Corporation

SRPK1 = molecular target: T17, SRPK1 (Homo sapiens, UniProt Q96SB4); assay: HotSpot kinase assay; assay type: biochemical; conditions: read-out: % Enzyme Activity (relative to DMSO controls)
T17 construct: purchased Reaction Biology Corporation

MEKK1 = molecular target: T18, MEKK1 (Homo sapiens, UniProt Q13233); assay: HotSpot kinase assay; assay type: biochemical; conditions: read-out: % Enzyme Activity (relative to DMSO controls)
T18 construct: purchased Reaction Biology Corporation

PKCzeta = molecular target: T19, PKCzeta (Homo sapiens, UniProt Q05513); assay: HotSpot kinase assay; assay type: biochemical; conditions: read-out: % Enzyme Activity (relative to DMSO controls)
T19 construct: purchased Reaction Biology Corporation

AXL = molecular target: T20, AXL (Homo sapiens, UniProt P30530); assay: HotSpot kinase assay; assay type: biochemical; conditions: read-out: % Enzyme Activity (relative to DMSO controls)
T20 construct: purchased Reaction Biology Corporation

PKCd = molecular target: T21, PKCd (Homo sapiens, UniProt Q05655); assay: biochemical
T21 construct: purchased Reaction Biology Corporation

MST3/STK24 = molecular target: T22, MST3/STK24 (Homo sapiens, UniProt Q9Y6E0); assay: HotSpot kinase assay; assay type: biochemical; conditions: read-out: % Enzyme Activity (relative to DMSO controls)
T22 construct: purchased Reaction Biology Corporation

GRK3 = molecular target: T23, GRK3 (Homo sapiens, UniProt P35626); assay: HotSpot kinase assay; assay type: biochemical; conditions: read-out: % Enzyme Activity (relative to DMSO controls)
T23 construct: purchased Reaction Biology Corporation

MARK1 = molecular target: T24, MARK1 (Homo sapiens, UniProt Q9P0L2); assay: HotSpot kinase assay; assay type: biochemical; conditions: read-out: % Enzyme Activity (relative to DMSO controls)
T24 construct: purchased Reaction Biology Corporation

GRK4 = molecular target: T25, GRK4 (Homo sapiens, UniProt P32298); assay: HotSpot kinase assay; assay type: biochemical; conditions: read-out: % Enzyme Activity (relative to DMSO controls)
T25 construct: purchased Reaction Biology Corporation

EPHA5 = molecular target: T26, EPHA5 (Homo sapiens, UniProt P54756); assay: HotSpot kinase assay; assay type: biochemical; conditions: read-out: % Enzyme Activity (relative to DMSO controls)
T26 construct: purchased Reaction Biology Corporation

NLK = molecular target: T27, NLK (Homo sapiens, UniProt Q9UBE8); assay: HotSpot kinase assay; assay type: biochemical; conditions: read-out: % Enzyme Activity (relative to DMSO controls)
T27 construct: purchased Reaction Biology Corporation

MSSK1/STK23 = molecular target: T28, MSSK1/STK23 (Homo sapiens, UniProt Q9UPE1); assay: HotSpot kinase assay; assay type: biochemical; conditions: read-out: % Enzyme Activity (relative to DMSO controls)
T28 construct: purchased Reaction Biology Corporation

TESK2 = molecular target: T29, TESK2 (Homo sapiens, UniProt Q96S53); assay: HotSpot kinase assay; assay type: biochemical; conditions: read-out: % Enzyme Activity (relative to DMSO controls)
T29 construct: purchased Reaction Biology Corporation

HSV-2(G) = assay: synchronized infection (entry) assay, HaCat cells; assay type: cell-based; conditions: 10 μM
Protocol: To quantify viral entry, cells were synchronously infected by allowing virus to bind to cells at 4°C for 4 h, washed, and then transferred to 37 °C. CIMSS or control DMSO was added at the time of temperature shift. At indicated times post-temperature shift, the cells were treated with a low pH buffer to inactivate virus that had not penetrated, washed, overlaid with medium containing methyl cellulose and viral plaques were counted at 48 h. Entry was also assessed by immunoblotting nuclear extracts for VP16. […] Nuclear extracts were prepared after 1 h and analyzed by western blot with antibodies targeting VP16, histone H1 and golgin-97[5]. The non-nuclear fraction was also probed for golgin-97 as a positive control. […] After 1 or 4 h of incubation, the cells were fixed. Plasma membranes were stained using Image -IT^TM LIVE Plasma Membrane kit and nuclei were stained with DAPI (Thermo Fisher Scientific, Cat 134406). The percentage of GFP + nuclei was determined by counting ~200 cells over 3–4 fields. Images were obtained with Leica SP8 microscope (objective 63 × 1.4); xz images were captured with optical slice 0.6 µm, 25–30 slices per image.

CDK5/p35 = molecular target: T30, CDK5/p35 (Homo sapiens, UniProt Q00535); assay: HotSpot kinase assay; assay type: biochemical; conditions: read-out: % Enzyme Activity (relative to DMSO controls)
T30 construct: purchased Reaction Biology Corporation

TESK1 = molecular target: T31, TESK1 (Homo sapiens, UniProt Q15569); assay: HotSpot kinase assay; assay type: biochemical; conditions: read-out: % Enzyme Activity (relative to DMSO controls)
T31 construct: purchased Reaction Biology Corporation

CLK2 = molecular target: T32, CLK2 (Homo sapiens, UniProt P49760); assay: HotSpot kinase assay; assay type: biochemical; conditions: read-out: % Enzyme Activity (relative to DMSO controls)
T32 construct: purchased Reaction Biology Corporation

PKAcg = molecular target: T33, PKAcg (Homo sapiens, UniProt P22612); assay: HotSpot kinase assay; assay type: biochemical; conditions: read-out: % Enzyme Activity (relative to DMSO controls)
T33 construct: purchased Reaction Biology Corporation

DYRK1/DYRK1A = molecular target: T34, DYRK1/DYRK1A (Homo sapiens, UniProt Q13627); assay: HotSpot kinase assay; assay type: biochemical; conditions: read-out: % Enzyme Activity (relative to DMSO controls)
T34 construct: purchased Reaction Biology Corporation

T21 sequence (Q05655 whole entry): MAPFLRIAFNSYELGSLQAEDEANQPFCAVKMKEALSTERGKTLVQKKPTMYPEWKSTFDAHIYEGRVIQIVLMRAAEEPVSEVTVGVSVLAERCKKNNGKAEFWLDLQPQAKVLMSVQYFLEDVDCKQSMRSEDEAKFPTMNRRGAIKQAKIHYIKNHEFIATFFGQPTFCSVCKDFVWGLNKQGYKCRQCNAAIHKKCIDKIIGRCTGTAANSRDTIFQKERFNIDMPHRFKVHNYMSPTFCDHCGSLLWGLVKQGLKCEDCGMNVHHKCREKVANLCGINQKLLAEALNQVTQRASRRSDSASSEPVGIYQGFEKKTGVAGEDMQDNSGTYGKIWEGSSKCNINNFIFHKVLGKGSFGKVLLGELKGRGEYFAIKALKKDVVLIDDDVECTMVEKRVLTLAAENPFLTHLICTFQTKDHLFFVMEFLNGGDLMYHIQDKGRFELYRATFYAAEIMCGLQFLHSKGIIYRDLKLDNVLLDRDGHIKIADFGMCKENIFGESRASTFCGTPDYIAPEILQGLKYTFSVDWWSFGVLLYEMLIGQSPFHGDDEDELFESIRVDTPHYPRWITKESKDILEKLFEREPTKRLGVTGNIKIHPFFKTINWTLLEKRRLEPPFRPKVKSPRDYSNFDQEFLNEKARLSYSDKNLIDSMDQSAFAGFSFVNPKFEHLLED
T29 sequence (Q96S53 whole entry): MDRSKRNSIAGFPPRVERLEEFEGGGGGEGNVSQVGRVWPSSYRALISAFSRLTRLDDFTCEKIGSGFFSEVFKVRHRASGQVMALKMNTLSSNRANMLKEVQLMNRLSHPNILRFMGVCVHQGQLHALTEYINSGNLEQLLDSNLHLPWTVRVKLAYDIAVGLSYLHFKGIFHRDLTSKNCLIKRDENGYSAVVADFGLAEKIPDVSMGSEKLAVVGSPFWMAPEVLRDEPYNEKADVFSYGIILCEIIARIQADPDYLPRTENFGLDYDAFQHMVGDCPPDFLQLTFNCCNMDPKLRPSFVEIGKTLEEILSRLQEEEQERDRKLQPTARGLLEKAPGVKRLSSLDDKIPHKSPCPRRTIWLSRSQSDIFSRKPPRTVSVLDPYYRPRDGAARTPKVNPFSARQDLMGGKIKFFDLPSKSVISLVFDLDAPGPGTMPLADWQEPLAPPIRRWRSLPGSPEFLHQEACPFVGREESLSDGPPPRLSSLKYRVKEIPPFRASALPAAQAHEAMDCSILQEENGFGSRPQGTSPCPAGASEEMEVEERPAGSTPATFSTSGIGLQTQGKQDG
T26 sequence (P54756 25-1037): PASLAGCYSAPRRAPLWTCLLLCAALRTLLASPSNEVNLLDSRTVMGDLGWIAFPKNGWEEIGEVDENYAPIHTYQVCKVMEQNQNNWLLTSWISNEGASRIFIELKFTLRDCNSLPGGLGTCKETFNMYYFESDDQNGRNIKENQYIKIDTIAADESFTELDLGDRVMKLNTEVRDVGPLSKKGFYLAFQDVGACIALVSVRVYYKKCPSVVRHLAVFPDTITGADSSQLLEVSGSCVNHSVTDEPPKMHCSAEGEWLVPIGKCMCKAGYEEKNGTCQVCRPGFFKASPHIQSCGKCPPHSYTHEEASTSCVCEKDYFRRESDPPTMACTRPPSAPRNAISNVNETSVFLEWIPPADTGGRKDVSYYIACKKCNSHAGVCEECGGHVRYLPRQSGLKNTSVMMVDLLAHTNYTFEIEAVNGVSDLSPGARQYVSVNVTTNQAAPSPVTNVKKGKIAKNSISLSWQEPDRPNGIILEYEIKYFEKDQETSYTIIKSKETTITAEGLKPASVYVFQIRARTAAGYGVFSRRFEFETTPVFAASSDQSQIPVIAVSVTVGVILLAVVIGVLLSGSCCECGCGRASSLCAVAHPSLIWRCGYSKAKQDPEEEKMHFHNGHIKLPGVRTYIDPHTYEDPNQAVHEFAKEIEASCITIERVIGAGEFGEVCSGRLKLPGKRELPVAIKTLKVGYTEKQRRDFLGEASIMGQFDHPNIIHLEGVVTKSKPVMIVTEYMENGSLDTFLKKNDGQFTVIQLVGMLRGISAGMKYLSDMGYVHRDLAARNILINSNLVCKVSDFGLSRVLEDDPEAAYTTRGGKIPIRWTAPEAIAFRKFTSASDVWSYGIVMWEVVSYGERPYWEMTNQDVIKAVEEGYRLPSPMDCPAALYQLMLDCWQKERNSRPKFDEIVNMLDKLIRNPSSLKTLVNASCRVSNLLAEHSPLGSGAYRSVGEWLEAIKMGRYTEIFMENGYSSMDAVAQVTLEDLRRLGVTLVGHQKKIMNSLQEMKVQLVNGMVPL
T20 sequence (P30530 26-894): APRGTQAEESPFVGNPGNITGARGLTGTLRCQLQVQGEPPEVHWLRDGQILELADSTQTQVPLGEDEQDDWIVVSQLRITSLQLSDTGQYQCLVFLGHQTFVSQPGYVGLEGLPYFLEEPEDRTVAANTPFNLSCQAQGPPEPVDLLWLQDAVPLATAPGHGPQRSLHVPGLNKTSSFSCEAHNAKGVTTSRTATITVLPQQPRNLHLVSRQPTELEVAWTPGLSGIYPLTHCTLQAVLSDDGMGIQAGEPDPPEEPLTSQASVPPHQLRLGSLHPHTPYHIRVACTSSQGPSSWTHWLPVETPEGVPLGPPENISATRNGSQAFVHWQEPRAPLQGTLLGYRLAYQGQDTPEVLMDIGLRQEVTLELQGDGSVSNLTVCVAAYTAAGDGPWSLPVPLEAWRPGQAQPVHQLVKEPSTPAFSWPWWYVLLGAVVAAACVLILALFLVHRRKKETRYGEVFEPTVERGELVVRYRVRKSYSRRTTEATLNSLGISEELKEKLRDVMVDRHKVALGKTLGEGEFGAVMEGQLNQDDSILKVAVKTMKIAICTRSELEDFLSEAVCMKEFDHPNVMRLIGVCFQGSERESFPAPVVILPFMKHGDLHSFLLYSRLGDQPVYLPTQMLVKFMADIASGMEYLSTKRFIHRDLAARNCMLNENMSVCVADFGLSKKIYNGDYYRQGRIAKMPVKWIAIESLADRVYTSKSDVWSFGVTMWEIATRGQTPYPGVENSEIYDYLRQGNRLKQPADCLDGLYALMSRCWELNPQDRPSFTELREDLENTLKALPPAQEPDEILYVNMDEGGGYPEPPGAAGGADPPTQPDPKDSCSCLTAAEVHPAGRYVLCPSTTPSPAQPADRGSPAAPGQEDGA
T25 sequence (P32298 whole entry): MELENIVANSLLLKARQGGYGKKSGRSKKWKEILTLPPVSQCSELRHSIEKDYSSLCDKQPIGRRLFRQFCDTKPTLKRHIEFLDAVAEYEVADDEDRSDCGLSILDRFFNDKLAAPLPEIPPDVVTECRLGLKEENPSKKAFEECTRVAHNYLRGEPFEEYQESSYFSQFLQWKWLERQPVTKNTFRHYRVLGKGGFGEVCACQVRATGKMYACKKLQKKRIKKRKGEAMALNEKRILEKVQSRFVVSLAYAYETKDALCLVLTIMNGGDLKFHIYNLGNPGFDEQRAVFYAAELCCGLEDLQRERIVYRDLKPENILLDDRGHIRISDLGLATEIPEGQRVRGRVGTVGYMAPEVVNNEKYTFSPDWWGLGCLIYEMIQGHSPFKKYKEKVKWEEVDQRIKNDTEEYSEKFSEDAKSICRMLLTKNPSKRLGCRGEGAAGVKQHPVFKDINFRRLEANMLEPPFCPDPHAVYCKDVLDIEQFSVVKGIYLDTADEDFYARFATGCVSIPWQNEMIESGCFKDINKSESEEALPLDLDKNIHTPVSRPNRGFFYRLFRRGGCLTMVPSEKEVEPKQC
T3 sequence (Q9NYY3 whole entry): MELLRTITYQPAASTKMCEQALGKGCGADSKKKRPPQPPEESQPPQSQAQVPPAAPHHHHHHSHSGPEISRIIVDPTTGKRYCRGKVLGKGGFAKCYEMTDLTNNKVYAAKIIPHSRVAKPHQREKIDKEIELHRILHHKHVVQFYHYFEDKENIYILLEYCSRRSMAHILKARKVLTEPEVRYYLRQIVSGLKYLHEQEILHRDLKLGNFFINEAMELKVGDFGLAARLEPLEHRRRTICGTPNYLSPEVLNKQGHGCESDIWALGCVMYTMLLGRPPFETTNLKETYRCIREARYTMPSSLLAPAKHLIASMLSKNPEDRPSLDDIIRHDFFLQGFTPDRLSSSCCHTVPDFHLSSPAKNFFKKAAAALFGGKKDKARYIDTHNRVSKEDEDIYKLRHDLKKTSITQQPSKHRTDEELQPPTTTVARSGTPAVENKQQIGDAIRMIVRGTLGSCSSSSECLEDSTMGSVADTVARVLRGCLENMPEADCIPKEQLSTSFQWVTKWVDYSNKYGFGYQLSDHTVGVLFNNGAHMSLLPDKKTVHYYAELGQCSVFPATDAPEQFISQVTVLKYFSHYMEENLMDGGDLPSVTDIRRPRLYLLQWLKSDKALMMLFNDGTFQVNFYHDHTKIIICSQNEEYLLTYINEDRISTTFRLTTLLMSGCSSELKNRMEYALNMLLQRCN
T32 sequence (P49760 whole entry): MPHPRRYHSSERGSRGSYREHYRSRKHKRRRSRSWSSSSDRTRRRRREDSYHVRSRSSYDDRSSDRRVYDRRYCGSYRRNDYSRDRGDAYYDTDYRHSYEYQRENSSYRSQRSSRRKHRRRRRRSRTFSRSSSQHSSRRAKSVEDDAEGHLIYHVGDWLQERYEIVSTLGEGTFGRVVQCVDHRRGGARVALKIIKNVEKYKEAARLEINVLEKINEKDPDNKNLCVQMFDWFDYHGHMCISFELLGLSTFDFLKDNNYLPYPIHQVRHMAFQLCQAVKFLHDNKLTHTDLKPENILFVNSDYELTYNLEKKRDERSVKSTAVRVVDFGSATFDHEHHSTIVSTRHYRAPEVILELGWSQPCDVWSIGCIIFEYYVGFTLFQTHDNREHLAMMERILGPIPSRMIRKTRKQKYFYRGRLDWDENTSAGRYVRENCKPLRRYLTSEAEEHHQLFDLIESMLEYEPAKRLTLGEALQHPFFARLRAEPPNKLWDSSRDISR

CO[C@@H]1[C@H](N(C)C(=O)CCC(=O)NCc2cn(CCCS(=O)(=O)O)nn2)C[C@H]2O[C@]1(C)n1c3ccccc3c3c4c(c5c6ccccc6n2c5c31)C(=O)NC4 [CIMSS]
remaining activity at 10 µM (IRR/INSRR): 4.68% | remaining activity at 10 µM (TEC): 19.9% | remaining activity at 10 µM (PLK2): 27.4% | remaining activity at 10 µM (RSK4): 6.64% | remaining activity at 10 µM (JAK2): 1.13% | VSV-S infection (VSV-S): inhibited | remaining activity at 10 µM (CAMKK2): 1.86% | remaining activity at 10 µM (CLK4): 10.4% | remaining activity at 10 µM (NEK9): 2.81% | remaining activity at 10 µM (PKCg): 1.77% | remaining activity at 10 µM (STK32C/YANK3): 20.5% | remaining activity at 10 µM (CAMK4): 66.6% | remaining activity at 10 µM (MARK3): 1.8% | remaining activity at 10 µM (BMPR2): 50.4% | remaining activity at 10 µM (LRRK2): 1.69% | remaining activity at 10 µM (LCK2/ICK): 4.57% | remaining activity at 10 µM (PHKg2): 18.4% | remaining activity at 10 µM (SRPK1): 9.17% | remaining activity at 10 µM (MEKK1): 67% | remaining activity at 10 µM (PKCzeta): 55.8% | remaining activity at 10 µM (AXL): 3.61% | IC50 (PKCd; Supplementary Table 1, read-out: IC50 (Molar concentration)): 3.64 nM | remaining activity at 10 µM (PKCd; read-out: % Enzyme Activity (relative to DMSO controls), 10µM): 8.64% | remaining activity at 10 µM (MST3/STK24): 16.6% | remaining activity at 10 µM (GRK3): 46.9% | remaining activity at 10 µM (MARK1): 1.18% | remaining activity at 10 µM (GRK4): 19.8% | remaining activity at 10 µM (EPHA5): 52.7% | remaining activity at 10 µM (NLK): 73% | remaining activity at 10 µM (MSSK1/STK23): 67.7% | remaining activity at 10 µM (TESK2): 91.2% | plaques counted at 48 h (HSV-2(G); 1 h post-temperature shift): 11 and 17 | plaques counted at 48 h (HSV-2(G); 2 h post-temperature shift): 19 and 11 | viral plaque formation (HSV-2(G); each timepoint 0.5–2 h, p < 0.001): significant reduction | remaining activity at 10 µM (CDK5/p35): 8.78% | remaining activity at 10 µM (TESK1): 83% | remaining activity at 10 µM (CLK2): 4.13% | remaining activity at 10 µM (PKAcg): 2.07% | remaining activity at 10 µM (DYRK1/DYRK1A): 2.33%
